# Earlier results as cited in the CATMoS acute toxicity set (Mansouri et al. 2021).
# Where “and” joins values, the source holds several entries; their conditions need not be identical. Equal values may be shown once.
# Assay: rat acute oral toxicity
# Conditions: in vivo
row,Structure (SMILES),LD50
1,C1=CCC(C2OCC3(CC=CCC3)CO2)CC1 (configuration not stated),5190 mg/kg
2,FC(F)(F)c1nc2c(Br)cc(Cl)cc2[nH]1,7.18 mg/kg
3,O=C(O)CCc1nc2ccccc2[nH]1,1700 mg/kg
4,CCCCCC[C@H]1C(=O)O[C@H](C)[C@H](NC(=O)c2cccc(NC=O)c2O)C(=O)O[C@@H](C)[C@@H]1OC(=O)CC(C)C,1470 mg/kg
5,Cc1cnccn1,1800 mg/kg
6,Cc1cc(O)ccc1S(C)=O (configuration not stated),3500 mg/kg
7,CC(C)COC(=O)C(C)C,12800 mg/kg
8,CCC1(C(C)CC(C)C)C(=O)NC(=O)NC1=O (configuration not stated),75 mg/kg
9,O=c1[nH]c2ccccc2n1CCCN1CCC(n2c(=O)[nH]c3cc(Cl)ccc32)CC1,5240 mg/kg
10,C=CCc1c(O)c(CN2CCN(CCO)CC2)cc2c(C)cc(=O)oc12,3160 mg/kg
11,O=Cc1ccc(CO)o1,2500 mg/kg
12,O=NN1CCCCC1,200 mg/kg
13,O=c1cc[nH]c(=O)o1,850 mg/kg
14,COP(=O)(OC)Oc1ccc(SC)cc1,7 mg/kg
15,CC(C)(C)c1nnc(NS(=O)(=O)c2ccccc2)s1,500 mg/kg
16,CCCC(C)C(c1ccc(O)cc1)C(C)C (configuration not stated),1900 mg/kg
17,CNCCc1ccccn1,3030 mg/kg and 6110 mg/kg
18,C1=Cc2cccc(OCC3CNCCO3)c2C1 (configuration not stated),502 mg/kg
19,CNC(=O)Nc1c(OCCN2CCCC2)c(OC)c2occc2c1OC,1050 mg/kg
20,CN1C(=O)CN=C(c2ccccc2F)c2cc([N+](=O)[O-])ccc21,415 mg/kg
21,NCC(O)c1cccc(O)c1 (configuration not stated),390 mg/kg
22,CCC(=O)c1ccc2c(c1)N(CCCN1CCN(C)CC1)c1ccccc1S2,600 mg/kg
23,COc1ccc(CCNCC(O)COc2ccc(OCC(C)=O)c3c2CCC(=O)N3)cc1OC (configuration not stated),1260 mg/kg
24,CCCc1ccccc1O,500 mg/kg

row,Structure (SMILES),LD50
1,CCNCc1cc([N+](=O)[O-])ccc1O,1010 mg/kg
2,CN(CCO)Cc1cc(C(=O)c2cccs2)cc(C(C)(C)C)c1O,1000 mg/kg
3,CCN(CC)CCO,1300 mg/kg
4,NC(=O)OC[C@H](O)[C@@H](O)[C@H](N)C(=O)N[C@@H](C(=O)O)[C@H]1O[C@@H](n2cc(CO)c(=O)[nH]c2=O)[C@H](O)[C@@H]1O,14700 mg/kg
5,CCCN(CCC)c1c([N+](=O)[O-])cc(C(C)=O)cc1[N+](=O)[O-],750 mg/kg
6,CC(C)CCCC(C)N (configuration not stated),538 mg/kg
7,C=CCNc1nc(NCC=C)nc(N(CCCCCCN(c2nc(NCC=C)nc(NCC=C)n2)C2CC(C)(C)NC(C)(C)C2)C2CC(C)(C)NC(C)(C)C2)n1,4010 mg/kg
8,CC(C)OP(=S)(CCl)Sc1ccc(Br)cc1 (configuration not stated),23 mg/kg
9,Cn1c([N+](=O)[O-])cnc1COC(N)=O,3400 mg/kg
10,CCCC(=O)OCN(C)N=O,800 mg/kg
11,CC(Oc1ccc(Oc2ccc(Cl)cc2Cl)cc1)C(=O)O (configuration not stated),563 mg/kg
12,COc1ccc(CNCC(O)COc2ccc3[nH]c(=O)ccc3c2)cc1OC (configuration not stated),1500 mg/kg
13,C#CC(C)OC(=O)Nc1cccc(Cl)c1 (configuration not stated),2380 mg/kg
14,CCC/C=C/CO,3500 mg/kg
15,CCCCNC(=S)Nc1ccccc1,150 mg/kg
16,O=C(O)C(F)(F)C(F)F,8570 mg/kg
17,CN1CCC(OC(=O)C2CCc3cc(C4CCCCC4)ccc32)CC1 (configuration not stated),572 mg/kg
18,O=[N+]([O-])c1ccc(Cl)cc1C(F)(F)F,554 mg/kg
19,CCOP(=S)(OCC)Oc1ccc([N+](=O)[O-])c(Cl)c1,50 mg/kg
20,CCOP(=S)(OCC)SCC(=O)OC,1000 mg/kg
21,C/C(=N\O)C(=O)c1ccccc1,4240 mg/kg
22,C=C(CC(=O)c1ccc(-c2ccccc2Cl)cc1)C(=O)O,2400 mg/kg
23,O=C(Oc1ccc(Cl)cc1Cl)N1CCCC1,2200 mg/kg
24,Nc1cc(Cl)c(NC2=NCCN2)c(Cl)c1,38 mg/kg

row,Structure (SMILES),LD50
1,CCCCCCOC(=O)CC#N,6440 mg/kg
2,N#CC(Cl)=C(Cl)Cl,62.5 mg/kg
3,CN(C(=O)CF)c1cccc2ccccc12,67 mg/kg
4,COc1nc(C)nc(NC(=O)NS(=O)(=O)c2ccccc2Cl)n1,9370 mg/kg
5,CCOCN(C(=O)CCl)c1c(C)cccc1OC(C)C,2700 mg/kg
6,CCCOC(=O)CCC(=O)OCCC,6490 mg/kg
7,CSC(C)(C)C=NOC(=O)N(C)SN(C)Cc1ccccc1,9.4 mg/kg
8,O=C(NN=C1C=CC(=NO)C=C1)c1ccccc1,100 mg/kg
9,COCCN1C(=O)C2C3C=C(C(O)(c4ccccc4)c4ccccn4)C(C3=C(c3ccccc3)c3ccccn3)C2C1=O (configuration not stated),9 mg/kg
10,O=C(C=Cc1ccccc1O)OC(=O)C=Cc1ccccc1O,1510 mg/kg
11,CCC(=O)OC1(c2ccccc2)CCN(C)CC1CC (configuration not stated),175 mg/kg
12,FC(F)(F)c1nc2c(Cl)cc(Br)cc2[nH]1,6.4 mg/kg
13,CNCCCC12CC(c3ccccc31)c1ccccc12,1320 mg/kg
14,COc1ccc2c3c1O[C@H]1[C@@H](O)C=C[C@H]4[C@@H](C2)N(C)CC[C@@]341,85 mg/kg
15,O=c1[nH]c2ccccc2n1CCCN1CCN(C(c2ccccc2)c2ccccc2)CC1,1410 mg/kg
16,CCCCS(=O)(=O)NC1CCCCC1,2820 mg/kg
17,CC(C)OC(=O)C(C(=O)OC(C)C)=C1SCCS1,1190 mg/kg
18,CCC(=O)c1ccc2c(c1)N(CCCN(C)C)c1ccccc1S2,500 mg/kg
19,Cc1cc(C(=O)c2ccccc2)ccc1N=Cc1ccc(OCCC(C)C)cc1,1500 mg/kg
20,C=CCOC(=O)C=Cc1ccccc1,1520 mg/kg
21,C=CCOCC(CC)(CO)CO,4930 mg/kg
22,CCSc1nc(NC(C)C)nc(NC(C)C)n1,3900 mg/kg
23,COc1ccc([N+](=O)[O-])cc1Cl,1180 mg/kg
24,C=CC(C)(CCC=C(C)C)OC(=O)C=Cc1ccccc1 (configuration not stated),9960 mg/kg
